In ChEMBL document CHEMBL5230081, “Battle against Vancomycin-Resistant Bacteria: Recent Developments in Chemical Strategies” (J Med Chem, 2019):
Converted amounts (≈) assume the structure as drawn.

Key:
[1] = test system: Pseudomonas aeruginosa; experiment: Antibacterial activity against colistin-resistant Pseudomonas aeruginosa PA101243 assessed as reduction in bacterial growth after 18 hrs by microbroth dilution method; assay type: functional
[2] = test system: Pseudomonas aeruginosa; experiment: Synergistic antibacterial activity against multidrug-resistant Pseudomonas aeruginosa ATCC 27853 assessed as reduction in bacterial viability after 12 hrs in presence of 1/2 MIC of vancomycin; assay type: functional
[3] = test system: Staphylococcus aureus; experiment: Antibacterial activity against Staphylococcus aureus assessed as biofilm formation; assay type: functional
[4] = test system: Escherichia coli; experiment: Synergistic antibacterial activity against Escherichia coli in presence of Trimethoprim; assay type: functional
[5] = test system: Pseudomonas aeruginosa; experiment: Antibacterial activity against Pseudomonas aeruginosa ATCC 27853 assessed as bacterial growth inhibition measured after 24 hrs by microbroth dilution method; assay type: functional
[6] = test system: Escherichia coli; experiment: Synergistic antibacterial activity against Escherichia coli in presence of nitrofurantoin; assay type: functional
[7] = test system: Escherichia coli; experiment: Synergistic antibacterial activity against multidrug-resistant Escherichia coli assessed as reduction in bacterial viability after 12 hrs in presence of 1/2 MIC of nitrofurantoin; assay type: functional
[8] = test system: Enterococcus faecalis; experiment: Antibiofilm activity against Enterococcus faecalis ATCC 47077 biofilms assessed as biofilm eradication; assay type: functional
[9] = test system: Enterococcus faecalis; experiment: Antimicrobial activity against Vancomycin - resistant Enterococcus faecalis assessed as inhibition of bacterial growth; assay type: functional
[10] = test system: Escherichia coli; experiment: Synergistic antibacterial activity against multidrug-resistant Escherichia coli assessed as reduction in bacterial viability after 12 hrs in presence of 1/2 MIC of trimethoprim; assay type: functional
[11] = test system: Enterococcus faecium; experiment: Antibacterial activity against Vancomycin-resistant Enterococcus faecium assessed as reduction in bacterial growth measured after 48 hrs by microbroth dilution method; assay type: functional
[12] = test system: Staphylococcus aureus; experiment: Antimicrobial activity against Vancomycin-resistant Staphylococcus aureus incubated for 20 hrs by broth dilution method; assay type: functional
[13] = Binding affinity to D-Ala-D-Lac assessed as dissociation constant
[14] = Binding affinity to D-Ala-D-Ala assessed as dissociation constant
[15] = test system: Enterococcus faecium; experiment: Antimicrobial activity against Vancomycin-resistant (Van A) Enterococcus faecium ATCC 51559 assessed as reduction in microbial growth; assay type: functional
[16] = test system: Enterococcus faecium; experiment: Antibacterial activity against Vancomycin-resistant Enterococcus faecium assessed as colony forming unit at 20 times MIC concentration measured after 21 days by time kill assay; assay type: functional; details: time 21 day
[17] = test system: Staphylococcus aureus; experiment: Antibacterial activity against Vancomycin-intermediate Staphylococcus aureus NRS1 assessed as bacterial growth inhibition; assay type: functional
[18] = test system: Enterococcus faecium; experiment: Antimicrobial activity against Vancomycin-resistant (Van S) Enterococcus faecium ATCC 51559 assessed as reduction in microbial growth; assay type: functional
[19] = test system: Enterococcus faecium; experiment: Antibacterial activity against Enterococcus faecium SR7917 (VRE); assay type: functional
[20] = test system: Enterococcus faecalis; experiment: Antimicrobial activity against Vancomycin - resistant Enterococcus faecalis SR7914 assessed as inhibition of bacterial growth; assay type: functional
[21] = test system: Staphylococcus aureus; experiment: Antimicrobial activity against vancomycin-resistant Staphylococcus aureus assessed as microbial growth reduction; assay type: functional
[22] = test system: Acinetobacter baumannii; experiment: Antimicrobial activity against Acinetobacter baumannii assessed as microbial growth inhibition; assay type: functional
[23] = test system: Acinetobacter baumannii; experiment: Antibacterial activity against Acinetobacter baumannii R4942 assessed as reduction in bacterial growth in presence of telavancin by broth microdilution method; assay type: functional
[24] = test system: Enterobacter cloacae; experiment: Antibacterial activity against Enterobacter cloacae NDM-1 assessed as reduction in bacterial growth by broth microdilution method; assay type: functional
[25] = test system: Escherichia coli; experiment: Antibacterial activity against Escherichia coli ATCC 25922 assessed as bacterial growth inhibition measured after 48 hrs in presence of vancomycin; assay type: functional
[26] = test system: Escherichia coli; experiment: Antimicrobial activity against Escherichia coli ATCC 8739 assessed as microbial growth inhibition in presence of Vancomycin by agar dilution method; assay type: functional
[27] = test system: Escherichia coli; experiment: Antibacterial activity against Escherichia coli assessed as bacterial growth inhibition measured after 48 hrs in presence of vancomycin; assay type: functional
[28] = test system: Pseudomonas aeruginosa; experiment: Antibacterial activity against Pseudomonas aeruginosa R590 assessed as reduction in bacterial growth by broth microdilution method; assay type: functional
[29] = test system: Acinetobacter baumannii; experiment: Antibacterial activity against Acinetobacter baumannii R4942 assessed as reduction in bacterial growth by broth microdilution method; assay type: functional
[30] = test system: Acinetobacter baumannii; experiment: Antimicrobial activity against Acinetobacter baumannii ATCC 17978 assessed as microbial growth inhibition; assay type: functional
[31] = test system: Pseudomonas aeruginosa; experiment: Antibacterial activity against Pseudomonas aeruginosa R590 assessed as reduction in bacterial growth in presence of vancomycin by broth microdilution method; assay type: functional
[32] = test system: Acinetobacter baumannii; experiment: Antibacterial activity against Acinetobacter baumannii R4942 assessed as reduction in bacterial growth in presence of teicoplanin by broth microdilution method; assay type: functional
[33] = test system: Enterococcus faecium; experiment: Antimicrobial activity against Vancomycin-resistant Enterococcus faecium ATCC 51559 assessed as inhibition in microbial growth measured after 48 hrs by microbroth dilution method; assay type: functional
[34] = test system: Klebsiella pneumoniae; experiment: Antibacterial activity against Klebsiella pneumoniae R3949 assessed as reduction in bacterial growth in presence of Meropenem by broth microdilution method; assay type: functional
[35] = test system: Enterococcus faecium; experiment: Antimicrobial activity against Vancomycin-resistant Enterococcus faecium assessed as reduction in microbial growth; assay type: functional; details: Enterococcus faecium; read-out: MIC
[36] = Binding affinity to D-Ala-D-Lac
[37] = test system: Enterococcus faecalis; experiment: Antimicrobial activity against Vancomycin-sensitive Enterococcus faecalis ATCC 29212 assessed as reduction in microbial growth; assay type: functional
[38] = test system: Pseudomonas aeruginosa; experiment: Antibacterial activity against multi drug resistant Pseudomonas aeruginosa assessed as reduction in microbial growth after 16 to 18 hrs by microbroth dilution method; assay type: functional; details: time 16-18 hrs
[39] = Enterococcus faecium, ATCC 51559, read-out: MIC

C[C@@H](O)[C@H]1C(=O)N2C(C(=O)O)=C(S[C@@H]3CN[C@H](C(=O)N(C)C)C3)[C@H](C)[C@H]12 [MEROPENEM]
MIC [1]: < 1 µg/mL

CN[C@H](CC(C)C)C(=O)N[C@H]1C(=O)N[C@@H](CC(N)=O)C(=O)N[C@H]2C(=O)N[C@H]3C(=O)N[C@H](C(=O)N[C@H](C(=O)O)c4cc(O)cc(O)c4-c4cc3ccc4O)[C@H](O)c3ccc(c(Cl)c3)Oc3cc2cc(c3O[C@@H]2O[C@H](CO)[C@@H](O)[C@H](O)[C@H]2O[C@H]2C[C@](C)(N)[C@H](O)[C@H](C)O2)Oc2ccc(cc2Cl)[C@H]1O [VANCOMYCIN]
fractional inhibitory concentration index (FICI) [2]: <0.5
MBEC [3]: >512 µg/mL
MIC [4]: 0.2 µg/mL
MIC [5]: 0.5 µg/mL (≈ 0.345 µM)
MIC [6]: 6.25 µg/mL
MIC [7]: 12.5 µg/mL
MBEC [8]: >512 µg/mL
MIC [9]: 31 µg/mL (≈ 21.4 µM)
MIC [10]: 3.5 µg/mL

H-ILRWPWWPWRRK-NH2 [OMIGANAN]
MIC [11]: 2 µg/mL

CN[C@H](CC(C)C)C(=O)N[C@H]1C(=O)N[C@@H](CC(N)=O)C(=O)N[C@H]2C(=O)N[C@H]3C(=O)N[C@H](C(=O)N[C@H](C(=O)NCCSSCCNC(=O)[C@H]4NC(=O)[C@H]5NC(=O)[C@H](NC(=O)[C@@H]6NC(=O)[C@H](CC(N)=O)NC(=O)[C@H](NC(=O)[C@@H](CC(C)C)NC)[C@H](O)c7ccc(c(Cl)c7)Oc7cc6cc(c7O[C@@H]6O[C@H](CO)[C@@H](O)[C@H](O)[C@H]6O[C@H]6C[C@](C)(N)[C@H](O)[C@H](C)O6)Oc6ccc(cc6Cl)[C@H]5O)c5ccc(O)c(c5)-c5c(O)cc(O)cc54)c4cc(O)cc(O)c4-c4cc3ccc4O)[C@H](O)c3ccc(c(Cl)c3)Oc3cc2cc(c3O[C@@H]2O[C@H](CO)[C@@H](O)[C@H](O)[C@H]2O[C@H]2C[C@](C)(N)[C@H](O)[C@H](C)O2)Oc2ccc(cc2Cl)[C@H]1O
MIC [12]: 11 µM
Kd [13]: 440 µM
Kd [14]: 1.9 µM
MIC [15, 39]: 11 µM

CN[C@H](CC(C)C)C(=O)N[C@H]1C(=O)N[C@@H](CC(N)=O)C(=O)N[C@H]2C(=O)N[C@H]3C(=O)N[C@H](C(=O)N[C@H](C(=O)NCCCCCCN(Cc4ccccn4)Cc4ccccn4)c4cc(O)cc(O)c4-c4cc3ccc4O)[C@H](O)c3ccc(c(Cl)c3)Oc3cc2cc(c3O[C@@H]2O[C@H](CO)[C@@H](O)[C@H](O)[C@H]2O[C@H]2C[C@](C)(N)[C@H](O)[C@H](C)O2)Oc2ccc(cc2Cl)[C@H]1O
Activity [16]: 5 log10/ml
MIC [17]: 1 µM
MIC [15]: 1.5 µM
MIC [15, 39]: 2 µM

CCCCCCCCCC(=O)O[C@@H]1c2ccc(c(Cl)c2)Oc2cc3cc(c2O[C@@H]2O[C@H](CO)[C@@H](O)[C@H](O)[C@H]2O[C@H]2C[C@](C)(N)[C@H](O)[C@H](C)O2)Oc2ccc(cc2Cl)[C@@H](O)[C@@H](NC(=O)[C@@H](CC(C)C)NC)C(=O)N[C@@H](CC(N)=O)C(=O)N[C@H]3C(=O)N[C@H]2C(=O)N[C@@H]1C(=O)N[C@H](C(=O)O)c1ccccc1-c1cccc2c1
MIC [18]: 0.25 µg/mL

CCCCCCCCCCCCCCCCC[C@H]1CN(C)[C@@H]([C@H](O[C@@H]2O[C@H](CN)[C@@H](O)[C@H]2O)[C@H]2O[C@@H](n3ccc(=O)[nH]c3=O)[C@H](O)[C@@H]2O)C(=O)N(C)[C@@H]1C(=O)O
MIC [19]: 8 µg/mL (≈ 10 µM)
MIC [20]: 8 µg/mL (≈ 10 µM)

CCCCCCCCCCC(=O)N[C@@H](CCCCN)C(=O)N[C@@H](CCCCN)C(=O)NC(CCCCNC(=O)[C@H]1NC(=O)[C@H]2NC(=O)[C@H](NC(=O)[C@@H]3NC(=O)[C@H](CC(N)=O)NC(=O)[C@H](NC(=O)[C@@H](CC(C)C)NC)[C@H](O)c4ccc(c(Cl)c4)Oc4cc3cc(c4O[C@@H]3O[C@H](CO)[C@@H](O)[C@H](O)[C@H]3O[C@H]3C[C@](C)(N)[C@H](O)[C@H](C)O3)Oc3ccc(cc3Cl)[C@H]2O)c2ccc(O)c(c2)-c2c(O)cc(O)cc21)C(=O)O (stereo not given in full)
MIC [12]: 1 µg/mL
MIC [17]: 0.5 µg/mL
MIC [21]: 0.05 µg/mL (≈ 0.025 µM)
MIC [15, 39]: 6 µg/mL

CCCCCCCCCCCCCC[N+](C)(C)CCCNC(=O)[C@H]1NC(=O)[C@H]2NC(=O)[C@H](NC(=O)[C@@H]3NC(=O)[C@H](CC(N)=O)NC(=O)[C@H](NC(=O)[C@@H](CC(C)C)NC)[C@H](O)c4ccc(c(Cl)c4)Oc4cc3cc(c4O[C@@H]3O[C@H](CO)[C@@H](O)[C@H](O)[C@H]3O[C@H]3C[C@](C)(N)[C@H](O)[C@H](C)O3)Oc3ccc(cc3Cl)[C@H]2O)c2ccc(O)c(c2)-c2c(O)cc(O)cc21
MIC [22]: 3 µM
MIC [23]: < 1 µg/mL
MIC [24]: 12.5 µM
MIC [25]: 12.5 µg/mL
MIC [26]: 6 µg/mL
MIC [27]: 6.25 µg/mL
MIC [28]: 6.1 µM
MIC [29]: 3 µM
MIC [30]: ≤ 2 µg/mL
MIC [31]: 0.5 µg/mL
MIC [32]: ≤ 2 µg/mL
MIC [33]: 1.2 µM
MIC [34]: 3.15 µg/mL

CCCCCCCC[n+]1ccc(CN[C@@]2(C)C[C@H](O[C@H]3[C@H](Oc4c5cc6cc4Oc4ccc(cc4Cl)[C@@H](O)[C@@H](NC(=O)[C@@H](CC(C)C)NC)C(=O)N[C@@H](CC(N)=O)C(=O)N[C@H]6C(=O)N[C@H]4C(=O)N[C@H](C(=O)N[C@H](C(=O)NC(=O)[C@H](O)[C@@H](O)[C@H](O[C@@H]6O[C@H](CO)[C@@H](O)[C@H](O)[C@H]6O)[C@H](O)CO)c6cc(O)cc(O)c6-c6cc4ccc6O)[C@H](O)c4ccc(c(Cl)c4)O5)O[C@H](CO)[C@@H](O)[C@@H]3O)O[C@@H](C)[C@H]2O)cc1
MIC [35]: 0.09 µM
Ka [36]: 5.7 10^4/M
MIC [17]: 0.1 µM
MIC [15, 39]: 0.09 µM
MIC [37]: 0.1 µM

NC[C@H]1O[C@H](O[C@H]2[C@H](O)[C@@H](O[C@H]3O[C@H](CO)[C@@H](O)[C@H](N)[C@H]3O)[C@H](N)C[C@@H]2N)[C@H](N)C[C@@H]1O [TOBRAMYCIN]
MIC [38]: 0.7 µM
